Data reported in ChEMBL document CHEMBL1201862, “PubChem BioAssay data set” (2004).
pIC50: −log10 of the molar value. Active and inactive are the calls of the source.

Columns and labels:
[1] = biological target: T1, Sentrin-specific protease 1 (Homo sapiens, UniProt Q9P0U3); assay: SENP1 catalytic domain blockers, concentration series – biochemical, kinetic FRET, dose response (AID 651697); assay type: functional; conditions: read-out: IC50_Mean
[2] = biological target: T1, Sentrin-specific protease 1; assay: Dose response confirmation of small molecule inhibitors of the catalytic domain of the SUMO protease, SENP1 in a FRET assay.; assay type: functional; conditions: read-out: IC50_Mean
Vero = assay: viability loss in Vero cells – cell-based, plate reader, cherry-pick samples, cytotoxicity control, dose response (AID 687020); assay type: functional; conditions: Chlorocebus sabaeus
[3] = Luminescence Cell-Based Dose Retest to Confirm Inhibitors of Cancer Stem Cells. [Related pubchem assays (depositor defined):AID2717, AID2721]; assay type: functional; conditions: Homo sapiens
[4] = viability loss in HEK293T cells – cell-based, cherry-picks, cytotoxicity control for HIV Vif inhibitor project, dose response (AID 652208); assay type: functional
[5] = MITF Orthogonal Assay: SK-MEL-5 CTG Assay Measured in Cell-Based System Using Plate Reader - 2084-02_Inhibitor_Dose_DryPowder_Activity_Set7.; assay type: functional
[6] = MITF: Counter assay: A375 proliferation Measured in Cell-Based System Using Plate Reader - 2084-03_Inhibitor_Dose_DryPowder_Activity_Set8.; assay type: functional; conditions: A-375
[7] = inhibitors of TRPM1-promoter reporter in SK-MEL-5 – cell-based, luciferase, dry powder, set 8, MITF inhibitor project, dose response (AID 624430); assay type: functional
[8] = biological target: Endoplasmic reticulum aminopeptidase 1 (Homo sapiens, UniProt Q9NZ08); assay: inhibition of human ERAP1 enzyme activity – biochemical, cherry-pick, set 2, plate reader, dose response (AID 743314)
Sequence of Endoplasmic reticulum aminopeptidase 1 (Q9NZ08 whole entry): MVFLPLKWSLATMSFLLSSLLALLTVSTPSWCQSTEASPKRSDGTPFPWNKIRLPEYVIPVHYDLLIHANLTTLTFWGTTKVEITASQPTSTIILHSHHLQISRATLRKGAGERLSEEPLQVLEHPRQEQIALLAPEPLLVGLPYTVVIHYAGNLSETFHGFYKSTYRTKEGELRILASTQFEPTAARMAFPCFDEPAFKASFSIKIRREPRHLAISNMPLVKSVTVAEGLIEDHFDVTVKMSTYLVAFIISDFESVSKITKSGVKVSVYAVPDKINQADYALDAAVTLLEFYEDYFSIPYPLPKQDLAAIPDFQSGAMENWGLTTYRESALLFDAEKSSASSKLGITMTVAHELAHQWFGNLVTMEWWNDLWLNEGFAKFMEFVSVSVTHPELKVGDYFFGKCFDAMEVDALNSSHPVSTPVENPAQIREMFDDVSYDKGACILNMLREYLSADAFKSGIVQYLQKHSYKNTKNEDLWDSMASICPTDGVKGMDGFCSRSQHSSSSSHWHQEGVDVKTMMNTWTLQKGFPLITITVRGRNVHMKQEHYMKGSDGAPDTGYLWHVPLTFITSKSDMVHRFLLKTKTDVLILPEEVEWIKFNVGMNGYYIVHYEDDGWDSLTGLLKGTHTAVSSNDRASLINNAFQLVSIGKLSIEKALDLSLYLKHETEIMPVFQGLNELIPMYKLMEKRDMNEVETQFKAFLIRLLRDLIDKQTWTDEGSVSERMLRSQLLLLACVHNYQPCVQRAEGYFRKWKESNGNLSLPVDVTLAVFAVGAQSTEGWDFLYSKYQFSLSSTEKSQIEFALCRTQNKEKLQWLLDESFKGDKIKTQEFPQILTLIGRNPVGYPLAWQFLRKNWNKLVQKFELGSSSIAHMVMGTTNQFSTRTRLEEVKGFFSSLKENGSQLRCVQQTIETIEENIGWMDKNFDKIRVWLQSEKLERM

Beta-lactamase [9] = biological target: T2, Beta-lactamase (Pseudomonas aeruginosa, UniProt Q79MP6)
T2 sequence (Q79MP6 whole entry): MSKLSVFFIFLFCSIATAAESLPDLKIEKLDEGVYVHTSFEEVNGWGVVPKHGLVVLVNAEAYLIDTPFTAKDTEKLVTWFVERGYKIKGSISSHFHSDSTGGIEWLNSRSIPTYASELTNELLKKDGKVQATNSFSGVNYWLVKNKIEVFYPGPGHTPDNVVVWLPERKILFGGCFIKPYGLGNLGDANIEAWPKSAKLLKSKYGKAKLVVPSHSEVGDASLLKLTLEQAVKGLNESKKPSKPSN

Beta-lactamase [10] = biological target: T3, Beta-lactamase (Salmonella choleraesuis (strain SC-B67), UniProt Q5J463)
T3 sequence (Q5J463 whole entry): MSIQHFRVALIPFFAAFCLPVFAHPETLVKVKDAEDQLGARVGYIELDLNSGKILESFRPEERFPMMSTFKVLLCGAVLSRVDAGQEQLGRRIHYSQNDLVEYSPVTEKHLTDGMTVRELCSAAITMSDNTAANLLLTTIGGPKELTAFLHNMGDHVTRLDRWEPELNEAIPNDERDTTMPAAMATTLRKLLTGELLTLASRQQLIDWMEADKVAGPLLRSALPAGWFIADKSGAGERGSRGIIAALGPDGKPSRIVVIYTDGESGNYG

Beta-lactamase [11] = biological target: T3, Beta-lactamase; assay: Epi-absorbance-based counterscreen for selective VIM-2 inhibitors: dose response biochemical high throughput screening assay to identify inhibitors of TEM-1 serine-beta-lactamase.
Beta-lactamase [12] = biological target: T2, Beta-lactamase; assay: inhibition of IMP-1 beta-lactamase activity – biochemical, epi-absorbance, selectivity assay for VIM-2 inhibitor project, dose response (AID 1920)
Beta-lactamase [13] = biological target: T2, Beta-lactamase; assay: […] counterscreen for selective VIM-2 inhibitors: dose response biochemical high throughput screening assay to identify inhibitors of IMP-1 metallo-beta-lactamase.
Coagulation factor XII = biological target: T4, Coagulation factor XII (Homo sapiens, UniProt P00748); assay type: functional;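 note: activated factor XIIa alpha cleaving a fluorogenic AMC peptide substrate; inhibitor potency from loss of enzyme activity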
T4 sequence (P00748 whole entry): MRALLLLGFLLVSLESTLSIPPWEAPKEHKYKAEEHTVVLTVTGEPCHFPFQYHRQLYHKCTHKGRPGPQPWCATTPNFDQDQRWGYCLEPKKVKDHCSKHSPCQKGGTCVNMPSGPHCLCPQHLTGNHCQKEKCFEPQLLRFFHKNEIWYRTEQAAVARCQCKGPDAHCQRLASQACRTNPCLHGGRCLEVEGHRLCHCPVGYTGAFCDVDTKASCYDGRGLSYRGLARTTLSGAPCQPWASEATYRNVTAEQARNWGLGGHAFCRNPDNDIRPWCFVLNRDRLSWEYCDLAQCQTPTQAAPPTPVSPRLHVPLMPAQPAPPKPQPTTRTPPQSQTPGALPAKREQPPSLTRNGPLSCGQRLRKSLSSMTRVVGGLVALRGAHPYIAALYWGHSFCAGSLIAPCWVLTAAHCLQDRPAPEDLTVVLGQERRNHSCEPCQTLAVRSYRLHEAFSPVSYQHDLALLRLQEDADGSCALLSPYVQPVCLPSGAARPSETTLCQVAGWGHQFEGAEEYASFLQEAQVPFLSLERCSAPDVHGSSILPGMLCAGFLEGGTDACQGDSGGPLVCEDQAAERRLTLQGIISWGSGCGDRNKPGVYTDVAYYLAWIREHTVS

Galanin receptor type 3 = Galanin receptor type 3 (Homo sapiens, UniProt O60755); assay: Fluorescence-based cell-based primary high throughput dose response assay to identify antagonists of the Galanin Receptor 3 (GalR3).; assay type: functional
Sequence of Galanin receptor type 3 (O60755 whole entry): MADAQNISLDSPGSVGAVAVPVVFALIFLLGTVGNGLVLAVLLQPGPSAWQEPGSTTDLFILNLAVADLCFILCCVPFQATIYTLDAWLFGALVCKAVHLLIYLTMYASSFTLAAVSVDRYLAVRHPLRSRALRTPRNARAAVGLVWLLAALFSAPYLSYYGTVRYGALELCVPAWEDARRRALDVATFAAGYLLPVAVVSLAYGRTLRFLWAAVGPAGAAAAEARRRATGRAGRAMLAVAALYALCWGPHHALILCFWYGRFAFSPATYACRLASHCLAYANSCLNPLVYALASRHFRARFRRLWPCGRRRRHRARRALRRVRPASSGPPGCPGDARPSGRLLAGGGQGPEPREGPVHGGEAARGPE

cells = assay type: functional, cell-based; conditions: HEK-CNG
[14] = Fluorescence-based cell-based high throughput dose response assay for inhibitors of the interaction of nucleotide-binding oligomerization domain containing 2 (NOD2) and the receptor-interacting serine-threonine kinase 2 (RIPK2).; assay type: functional; conditions: Homo sapiens
[15] = biological target: ADP-ribosylation factor GTPase-activating protein 1 (Rattus norvegicus, UniProt Q62848); assay: Fluorescence polarization-based biochemical high throughput dose response screening assay to identify inhibitors of ADP-ribosylation factor GTPase activating protein 1 (ARFGAP1).; assay type: functional
Sequence of ADP-ribosylation factor GTPase-activating protein 1 (Q62848 whole entry, the tested form may be a part): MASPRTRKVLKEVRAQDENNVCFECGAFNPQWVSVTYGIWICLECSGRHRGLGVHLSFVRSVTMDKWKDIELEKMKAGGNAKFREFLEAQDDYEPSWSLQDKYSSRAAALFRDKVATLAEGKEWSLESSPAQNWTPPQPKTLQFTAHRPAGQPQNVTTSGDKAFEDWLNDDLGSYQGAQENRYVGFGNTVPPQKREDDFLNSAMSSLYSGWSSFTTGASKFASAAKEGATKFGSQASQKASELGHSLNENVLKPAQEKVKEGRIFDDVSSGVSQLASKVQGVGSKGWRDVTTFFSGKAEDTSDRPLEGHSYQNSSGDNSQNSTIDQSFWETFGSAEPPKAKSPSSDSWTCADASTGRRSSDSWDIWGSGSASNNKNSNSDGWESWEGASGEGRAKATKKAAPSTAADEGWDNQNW

[16] = biological target: Arf-GAP with SH3 domain, ANK repeat and PH domain-containing protein 1 (Homo sapiens, UniProt Q9ULH1); assay type: functional;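 note: biochemical fluorescence polarization dose–response screen measuring inhibition of ASAP1; ASAP1 GAP domain stimulating GTP hydrolysis by truncated human ARF1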
Sequence of Arf-GAP with SH3 domain, ANK repeat and PH domain-containing protein 1 (Q9ULH1 whole entry, the tested form may be a part): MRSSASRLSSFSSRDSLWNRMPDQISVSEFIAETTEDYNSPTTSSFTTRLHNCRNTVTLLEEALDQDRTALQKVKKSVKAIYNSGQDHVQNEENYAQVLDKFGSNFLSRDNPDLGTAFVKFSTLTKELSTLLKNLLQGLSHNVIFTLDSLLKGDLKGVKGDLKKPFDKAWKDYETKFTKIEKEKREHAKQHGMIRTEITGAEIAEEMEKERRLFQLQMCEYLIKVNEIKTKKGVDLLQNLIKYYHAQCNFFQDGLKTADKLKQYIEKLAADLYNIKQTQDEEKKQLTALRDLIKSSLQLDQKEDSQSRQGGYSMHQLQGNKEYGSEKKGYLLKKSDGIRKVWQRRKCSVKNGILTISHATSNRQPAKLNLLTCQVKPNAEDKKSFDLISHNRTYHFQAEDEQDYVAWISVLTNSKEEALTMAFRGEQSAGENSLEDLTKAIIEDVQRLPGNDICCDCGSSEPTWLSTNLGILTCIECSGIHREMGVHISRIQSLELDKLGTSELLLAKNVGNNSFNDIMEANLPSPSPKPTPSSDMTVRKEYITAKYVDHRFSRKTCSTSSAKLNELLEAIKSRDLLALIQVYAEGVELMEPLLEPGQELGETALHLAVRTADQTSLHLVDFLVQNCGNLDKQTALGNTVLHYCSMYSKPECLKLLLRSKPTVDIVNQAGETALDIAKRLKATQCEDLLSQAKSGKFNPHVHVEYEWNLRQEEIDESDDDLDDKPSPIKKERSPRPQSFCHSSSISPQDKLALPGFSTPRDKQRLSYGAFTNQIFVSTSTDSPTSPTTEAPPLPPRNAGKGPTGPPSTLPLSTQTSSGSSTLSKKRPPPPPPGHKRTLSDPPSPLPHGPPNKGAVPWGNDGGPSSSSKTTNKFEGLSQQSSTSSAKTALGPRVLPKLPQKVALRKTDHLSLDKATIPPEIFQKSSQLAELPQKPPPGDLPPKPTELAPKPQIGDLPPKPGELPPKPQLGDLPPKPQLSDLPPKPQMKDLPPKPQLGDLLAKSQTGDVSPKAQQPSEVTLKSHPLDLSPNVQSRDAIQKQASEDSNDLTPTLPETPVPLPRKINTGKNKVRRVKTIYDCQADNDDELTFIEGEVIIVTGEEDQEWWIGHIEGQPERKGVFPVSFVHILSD

[17] = biological target: T5, Aryl hydrocarbon receptor (Homo sapiens, UniProt P35869); conditions: Potency;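 for AC50: confirmatory quantitative high-throughput screen measuring activation of the AhR signaling pathway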
T5 sequence (P35869 whole entry): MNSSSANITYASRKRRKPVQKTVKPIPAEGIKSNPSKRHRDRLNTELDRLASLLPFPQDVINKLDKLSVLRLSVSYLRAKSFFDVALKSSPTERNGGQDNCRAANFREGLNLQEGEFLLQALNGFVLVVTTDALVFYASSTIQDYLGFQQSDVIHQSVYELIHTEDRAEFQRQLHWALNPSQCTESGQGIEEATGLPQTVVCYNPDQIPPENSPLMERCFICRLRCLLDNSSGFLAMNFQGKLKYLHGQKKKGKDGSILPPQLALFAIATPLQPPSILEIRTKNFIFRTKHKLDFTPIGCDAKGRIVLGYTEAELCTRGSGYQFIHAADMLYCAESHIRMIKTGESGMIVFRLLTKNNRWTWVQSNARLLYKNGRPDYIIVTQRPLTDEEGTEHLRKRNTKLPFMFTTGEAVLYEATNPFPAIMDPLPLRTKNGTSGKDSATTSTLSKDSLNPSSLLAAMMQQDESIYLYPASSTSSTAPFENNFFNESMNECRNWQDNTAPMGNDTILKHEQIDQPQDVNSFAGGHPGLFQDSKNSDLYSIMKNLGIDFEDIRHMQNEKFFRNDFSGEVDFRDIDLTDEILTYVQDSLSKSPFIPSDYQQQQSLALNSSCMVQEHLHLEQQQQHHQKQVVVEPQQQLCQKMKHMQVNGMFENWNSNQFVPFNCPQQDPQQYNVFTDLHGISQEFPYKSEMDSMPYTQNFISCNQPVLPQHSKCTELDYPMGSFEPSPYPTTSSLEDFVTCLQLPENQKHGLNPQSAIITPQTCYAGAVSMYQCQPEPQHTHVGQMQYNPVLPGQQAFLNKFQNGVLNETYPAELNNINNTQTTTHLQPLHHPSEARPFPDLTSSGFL

[18] = viability loss in HepG2 hepatoma cells – cell-based, cherry-picks, set 5, cytotoxicity control, dose response (AID 1053118); assay type: functional
[19] = mouse fibroblast viability loss – cell-based, cherry-pick samples, set 2, cytotoxicity control for T. cruzi growth inhibitor project, dose response (AID 651817); assay type: functional; conditions: NIH3T3
[20] = intracellular Trypanosoma cruzi inhibitors in host cells – cell-based, plate reader, cherry-pick samples, set 3, dose response (AID 651818); assay type: functional;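 note: compounds incubated with infected cells for about four days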
[21] = blockers of HIV-1 envelope-mediated cell-cell fusion – cherry-pick, dose response (AID 652057); assay type: functional, cell-based
[22] = viability loss in CEM21 cells – cell-based, CellTiter-Glo luminescence, cherry-picked, cytotoxicity control for viral fusion inhibitor project, dose response (AID 652042); assay type: functional;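 note: potency for signal decrease meaning cytotoxicity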
[23] = HIV-1 AD8 envelope cell-cell fusion blockers – cherry-pick, dose response (AID 652062); assay type: functional, cell-based;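 note: luciferase signal from cell-cell fusion driven by HIV-1 clade B AD8 Env; potency is for inhibitors of fusion seen as a drop in luminescence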
[24] = biological target: Metabotropic glutamate receptor 3 (Rattus norvegicus, UniProt P31422); assay: inhibition of rat mGlu3 glutamate signaling – HEK/GIRK cells, thallium flux, dose response (AID 651839); assay type: functional
Sequence of Metabotropic glutamate receptor 3 (P31422 whole entry): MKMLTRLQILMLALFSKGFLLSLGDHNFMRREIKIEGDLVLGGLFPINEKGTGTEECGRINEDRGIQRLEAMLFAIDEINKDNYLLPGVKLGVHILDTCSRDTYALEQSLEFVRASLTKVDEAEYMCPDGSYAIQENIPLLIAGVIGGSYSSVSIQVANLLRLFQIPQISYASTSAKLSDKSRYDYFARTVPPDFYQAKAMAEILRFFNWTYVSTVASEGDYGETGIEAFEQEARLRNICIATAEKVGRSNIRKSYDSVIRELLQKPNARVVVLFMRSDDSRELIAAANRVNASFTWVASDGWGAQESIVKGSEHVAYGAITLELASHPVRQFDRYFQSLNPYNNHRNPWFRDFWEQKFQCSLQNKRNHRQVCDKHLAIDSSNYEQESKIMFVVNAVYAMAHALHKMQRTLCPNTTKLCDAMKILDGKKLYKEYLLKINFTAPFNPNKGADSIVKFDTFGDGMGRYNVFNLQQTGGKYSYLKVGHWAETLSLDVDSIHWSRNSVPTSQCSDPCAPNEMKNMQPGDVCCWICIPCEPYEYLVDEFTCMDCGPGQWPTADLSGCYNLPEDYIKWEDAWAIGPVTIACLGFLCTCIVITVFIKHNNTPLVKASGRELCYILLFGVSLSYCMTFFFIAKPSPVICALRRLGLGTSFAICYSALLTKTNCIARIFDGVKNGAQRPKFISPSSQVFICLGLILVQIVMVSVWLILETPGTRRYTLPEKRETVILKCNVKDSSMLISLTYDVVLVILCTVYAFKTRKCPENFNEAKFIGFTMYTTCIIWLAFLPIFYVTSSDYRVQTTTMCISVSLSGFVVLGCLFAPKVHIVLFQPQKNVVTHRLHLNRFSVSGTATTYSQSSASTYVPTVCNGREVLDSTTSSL

[25] = Luminescence Cell-Based Dose Response HTS to Identify Activators of Luciferase Translation or Activity in H4 […] Cells. [Related pubchem assays: 1829 (Project Summary), 1814 (Primary HTS)]; assay type: functional
H4 = assay: Luminescence Cell-Based Dose Response HTS to Identify Activators of 5'UTR Stem-Loop Driven Prion Protein mRNA Translation in H4 Neuroglioblastoma Cells. [Related pubchem assays: 1829 (Project Summary), 1814 (Primary HTS)]; assay type: functional; conditions: Homo sapiens
[26] = biological target: T5, Aryl hydrocarbon receptor; assay: Luminescence-based cell-based high throughput dose response assay for activators of the Aryl Hydrocarbon Receptor (AHR). [Related pubchem assays: 2796 (Primary screen (AHR activators in singlicate)), 2845 (Confirmation screen (AHR activators in triplicate)), 434939 (Counterscreen (PXR activators in triplicate)), 2804 (Summary (AHR activators))]; assay type: ADME
[27] = Counterscreen for […] of the human trace amine associated receptor 1 (TAAR1): Fluorescence-based cell-based high throughput dose response assay to identify nonselective Ga16 agonists.; assay type: functional
[28] = biological target: T6, Trace amine-associated receptor 1 (Homo sapiens, UniProt Q96RJ0); assay: Fluorescence-based cell-based high throughput dose response assay to identify antagonists of the human trace amine associated receptor 1 (TAAR1).; assay type: functional
T6 sequence (Q96RJ0 whole entry): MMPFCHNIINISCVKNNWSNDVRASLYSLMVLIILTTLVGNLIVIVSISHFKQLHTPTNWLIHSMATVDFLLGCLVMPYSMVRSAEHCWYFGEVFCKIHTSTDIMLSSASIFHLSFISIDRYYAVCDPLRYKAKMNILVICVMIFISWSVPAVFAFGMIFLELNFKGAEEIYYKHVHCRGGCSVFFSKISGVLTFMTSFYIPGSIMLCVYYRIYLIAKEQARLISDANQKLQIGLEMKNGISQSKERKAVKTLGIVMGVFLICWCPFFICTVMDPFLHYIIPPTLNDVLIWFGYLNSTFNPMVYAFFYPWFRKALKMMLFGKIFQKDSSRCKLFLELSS

[29] = Counterscreen for antagonists of the human trace amine associated receptor 1 (hTAAR1): Fluorescence-based cell-based high throughput dose response assay to identify nonselective Ga16 antagonists.; assay type: functional
[30] = biological target: T6, Trace amine-associated receptor 1; assay: Counterscreen for antagonists of the human trace amine associated receptor 1 (hTAAR1): Fluorescence-based cell-based high throughput dose response assay to identify TAAR1 Agonists.; assay type: functional
[31] = kidney cell line viability loss – HEK293T, luminescence plate reader, powder samples, set 4, cytotoxicity control, dose response (AID 651863); assay type: functional, cell-based; conditions: HEK293
[32] = inhibition of ARNT PAS-B/TACC3 complex formation – biochemical, AlphaScreen, cherry-picked samples, confirmation (AID 651703); assay type: functional, Homo sapiens;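 note: His-tagged ARNT PAS-B domain paired with GST-TACC3 E629A dimer coactivator fragment; potency of inhibitors that break up the complex and lower AlphaScreen signal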

T1 sequence (Q9P0U3 whole entry, the tested form may be a part): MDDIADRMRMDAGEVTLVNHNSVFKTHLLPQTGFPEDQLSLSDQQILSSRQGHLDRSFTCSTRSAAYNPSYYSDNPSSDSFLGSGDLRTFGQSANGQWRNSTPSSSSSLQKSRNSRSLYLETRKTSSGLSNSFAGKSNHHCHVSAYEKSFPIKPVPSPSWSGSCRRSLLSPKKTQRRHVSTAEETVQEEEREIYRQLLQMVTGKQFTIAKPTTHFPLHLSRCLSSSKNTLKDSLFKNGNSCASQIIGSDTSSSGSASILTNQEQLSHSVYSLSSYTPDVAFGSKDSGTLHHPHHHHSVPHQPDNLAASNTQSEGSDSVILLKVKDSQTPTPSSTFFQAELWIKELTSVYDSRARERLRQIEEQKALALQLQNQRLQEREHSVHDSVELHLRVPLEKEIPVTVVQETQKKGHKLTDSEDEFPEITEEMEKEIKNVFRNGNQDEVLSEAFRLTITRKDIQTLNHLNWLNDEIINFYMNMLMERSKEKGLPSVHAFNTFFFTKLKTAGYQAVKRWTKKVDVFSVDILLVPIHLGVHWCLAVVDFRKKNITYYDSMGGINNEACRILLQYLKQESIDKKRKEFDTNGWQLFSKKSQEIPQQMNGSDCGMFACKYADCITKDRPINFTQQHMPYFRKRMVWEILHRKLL

Nc1ccc2c(c1)C(=NO)c1cc([N+](=O)[O-])ccc1-2
IC50 [1]: 18.1 µM (active)
IC50 [2]: 3.12 µM (active)

Cc1cccc(OC(C)C(=O)Nc2nc(-c3ccncc3)cs2)c1 (configuration not stated)
AC50 (Vero): 35.8 µM (active)

Cc1cc(C)cc(NC(=O)CCc2nc(O)c3c4c(sc3n2)CCCC4)c1
AC50 [3]: 0.91 µM (active)
AC50 [4]: 37.5 µM (active)

CCN1CCN(C2=C(Nc3cccc(Br)c3)C(=O)c3ccccc3C2=O)CC1
AC50 [5]: 8.08 µM (active)
AC50 [6]: 26.2 µM (active)
AC50 [7]: 3.45 µM (active)

COc1ccc2c3c([nH]c2c1)[C@@H](CO)N(Cc1ccccc1OC)CC31CN(C)C1
AC50 [8]: 15.8 µM (active)

O=C(Nc1ccc(C(F)(F)F)cc1)c1ccc(NC(=O)C2CCCO2)cc1 (configuration not stated)
IC50 (Beta-lactamase [9]): 47.5 µM (inactive)
IC50 (Beta-lactamase [10]): > 59.6 µM (inactive)

CSc1nc(SCC(=O)O)c2c3c(sc2n1)COC(C)(C)C3
IC50 (Beta-lactamase [11]): > 59.6 µM (inactive)
IC50 (Beta-lactamase [12]): > 59.6 µM (inactive)
IC50 (Beta-lactamase [13]): > 59.6 µM (inactive)
IC50 (Coagulation factor XII): > 50 µM (inactive)

C[C@H]1C[C@H]2[C@@H]3CCC4=CC(=O)C=C[C@]4(C)[C@@]3(F)[C@@H](O)C[C@]2(C)[C@@]1(O)C(=O)CO [BETAMETHASONE]
IC50 (Galanin receptor type 3): > 29.9 µM (inactive)
EC50 (cells): > 29.9 µM (inactive)

C=CCOc1ccccc1C(=O)/C=C1/C(=O)Nc2ccccc21
IC50 [14]: 3.58 µM (active)

COc1ccc(/C=N\NC(=O)c2ccc([N+](=O)[O-])cc2)cc1COc1c(F)c(F)cc(F)c1F
IC50 [15]: 12.4 µM (inactive)
IC50 [16]: 15.7 µM (inactive)

CNc1cnn(-c2cccc(C(F)(F)F)c2)c(=O)c1Cl [NORFLURAZONE]
AC50 [17]: 31.6 µM (inconclusive)

COCC(=O)Nc1ccc2c(c1)C(=O)N(C)[C@H]1CC[C@@H](CC(=O)NCc3ccccc3Cl)O[C@@H]1CO2
AC50 [18]: > 52 µM (inactive)

C[C@@H]1CN([C@H](C)CO)C(=O)c2cccc(NC(=O)c3ccncc3)c2O[C@H]1CN(C)Cc1ccc(Cl)c(Cl)c1
AC50 [19]: 27.6 µM (active)
AC50 [20]: 0.08 µM (active)
AC50 [21]: 7.3 µM (active)
AC50 [22]: 38.5 µM (active)
AC50 [23]: 29.8 µM (active)

COc1ccc(C#Cc2ccc(C(=O)N3CCC[C@@H](O)C3)cc2)c(F)c1
pIC50 [24]: 5.37

O=C(Nc1ccccc1OC(=O)c1ccc(Cl)cc1)c1ccc(Cl)cc1
EC50 [25]: > 120 µM (not active)
EC50 (H4): 13.7 µM (active)
EC50 [26]: 4.89 µM (active)
EC50 [27]: > 29.9 µM (inactive)
IC50 [28]: 7.96 µM (active)
IC50 [29]: > 9.97 µM (active)
EC50 [30]: 15.7 µM (inactive)

O=C(O)C1CCCCC1C(=O)N1CCc2ccccc2[C@H]1C(=O)NC12CC3CC(CC(C3)C1)C2 (some centres not stated)
AC50 [31]: > 52 µM (inactive)

COC(=O)C(CC#Cc1ccc2c(c1)[C@]1(C(=O)N2)[C@H](c2ccc(O)cc2)N2[C@H](c3ccccc3)[C@H](c3ccccc3)OC(=O)[C@H]2[C@@H]1C(=O)N1CCCCCCC1)C(=O)OC
AC50 [32]: 104 µM (active)
